One assay deals with Aβ42. In words: Screening for γ-secretase-modulating activity in SKNBE2 cells carrying APP 695 wild type: Aβ42 in cell supernatant (Alphalisa). The note with it: overnight incubation. It is filed as cell-based. As for the experimental part: (§1) Pharmacology A) Screening of the Compounds of the Invention for γ-Secretase-Modulating Activity
(§2) Screening was carried out using SKNBE2 cells carrying the APP 695—wild type, grown in Dulbecco's Modified Eagle's Medium/Nutrient mixture F-12 (DMEM/NUT-mix F-12) (HAM) provided by Invitrogen (cat no. 10371-029) containing 5% Serum/Fe supplemented with 1% non-essential amino acids, 1-glutamine 2 mM, Hepes 15 mM, penicillin 50 U/ml (units/ml) en streptomycin 50 μg/ml. Cells were grown to near confluency.
(§3) The screening was performed using a modification of the assay as described in Citron et al (1997) Nature Medicine 3: 67. Briefly, cells were plated in a 384-well plate at 10^4 cells/well in Ultraculture (Lonza, BE12-725F) supplemented with 1% glutamine (Invitrogen, 25030-024), 1% non-essential amino acid (NEAA), penicillin 50 U/ml en streptomycin 50 μg/ml in the presence of test compound at different test concentrations. The cell/compound mixture was incubated overnight at 37° C., 5% CO2. The next day the media were assayed by two sandwich immuno-assays, for Aβ42 and Aβtotal.
(§4) Aβtotal and Aβ42 concentrations were quantified in the cell supernatant using the Aphalisa technology (Perkin Elmer). Alphalisa is a sandwich assay using biotinylated antibody attached to streptavidin coated donorbeads and antibody conjugated to acceptor beads. In the presence of antigen, the beads come into close proximity. The excitation of the donor beads provokes the release of singlet oxygen molecules that trigger a cascade of energy transfer in the acceptor beads, resulting in light emission. To quantify the amount of Aβ42 in the cell supernatant, monoclonal antibody specific to the C-terminus of Aβ42 (JRF/cAβ42/26) was coupled to the receptor beads and biotinylated antibody specific to the N-terminus of Aβ (JRF/AβN/25) was used to react with the donor beads. T quantify the amount of Aβtotal in the cell supernatant, monoclonal antibody specific to the N-terminus of Aβ (JRF/AβN/25) was coupled to the receptor beads and biotinylated antibody specific to the mid region of Aβ (biotinylated 4G8) was used to react with the donor beads.
(§5) To obtain the values reported in Table 3, the data are calculated as percentage of the maximum amount of amyloid Beta 42 measured in the absence of the test compound. The sigmoidal dose response curves were analyzed using non-linear regression analysis with percentage of the control plotted against the log concentration of the compound. A 4-parameter equation was used to determine the IC50.
On the technique in general: In Alpha technology, singlet oxygen from a donor bead excites a nearby acceptor bead.

Another assay deals with Aβtotal. Kind of assay: Screening for γ-secretase-modulating activity in SKNBE2 cells carrying APP 695 wild type: Aβtotal in cell supernatant (Alphalisa). It is filed as cell-based. The conditions noted are these: overnight incubation. How it is done: as §1, §2, §3, §4, §5
Where [1] appears, read: SKNBE2 cells carrying APP 695 wild type.
Setting [2] is: Homo sapiens, SKNBE2, SKNBE2 cells carrying APP 695 wild type.

Structures can show the parent of a compound that is named as a salt. A value given as a limit tells only on which side of the number the result lay.

With `COc1cccc(C2CCCn3nc(Nc4ccc(-n5cnc(C)c5)c(OC)c4)nc32)c1` (centres unmarked) [Compound 35, 5,6,7,8-tetrahydro-N-[3-methoxy-4-(4-methyl-1H-imidazol-1-yl)phenyl]-8-(3-methoxyphenyl)-[1,2,4]triazolo[1,5-a]pyridin-2-amine.2HCl.H2O], the IC50 (in general, the concentration that inhibits the measured activity by half) with Aβ42 (setting [1]) is 31 nM; with Aβtotal, above 10000 nM.

Consider `COc1cc(C(=O)Nc2nc3n(n2)CCCC3c2ccc(F)cc2)ccc1-n1cnc(C)c1` (centres unmarked) [Compound 36, N-[8-(4-fluorophenyl)-5,6,7,8-tetrahydro[1,2,4]triazolo[1,5-a]pyridin-2-yl]-3-methoxy-4-(4-methyl-1H-imidazol-1-yl)-benzamide], for which the IC50 was 501 nM in the assay on Aβ42 (setting [2]) and above 10000 nM in the assay with Aβtotal (Homo sapiens).

Regarding `COc1cccc(C2CCCn3nc(Nc4ccc(-c5ccnc(C)c5)c(OC)c4)nc32)c1` (centres unmarked) [Compound 40, 5,6,7,8-tetrahydro-N-[3-methoxy-4-(2-methyl-4-pyridinyl)phenyl]-8-(3-methoxyphenyl)-[1,2,4]triazolo[1,5-a]pyridin-2-amine.1.8 HCl.0.9H2O], the values for the IC50 in the assay on Aβ42 (setting [1]) and in the assay with Aβtotal were 39 nM and above 10000 nM, respectively.

`Cc1cc(-c2ccc(Nc3nc4n(n3)CCCC4c3ccccc3C(F)(F)F)cc2)c(C)cn1` (centres unmarked) [Compound 45, N-[4-(2,5-dimethyl-4-pyridinyl)phenyl]-5,6,7,8-tetrahydro-8-[2-(trifluoromethyl)phenyl]-[1,2,4]triazolo[1,5-a]pyridin-2-amine]: the values for the IC50 in the assay on Aβ42 (setting [2]) and with Aβtotal (Homo sapiens) were 145 nM and above 10000 nM, respectively.

Turning to `COc1cc(Nc2nc3n(n2)CCC(c2ccccc2C(F)(F)F)C3)ccc1-n1cnc(C)c1` (centres unmarked) [Compound 51, 5,6,7,8-tetrahydro-N-[3-methoxy-4-(4-methyl-1H-imidazol-1-yl)phenyl]-7-[2-(trifluoromethyl)phenyl]-[1,2,4]triazolo[1,5-a]pyridin-2-amine], the IC50 in the assay with Aβ42 (setting [2]) was 62 nM; with Aβtotal (Homo sapiens), above 10000 nM.

`COc1cc(Nc2nc3n(n2)CCC(c2ccccc2C(F)(F)F)C3)ccc1-c1ccnc(C)c1` (centres unmarked) [Compound 62, 5,6,7,8-tetrahydro-N-[3-methoxy-4-(2-methyl-4-pyridinyl)phenyl]-7-[2-(trifluoromethyl)phenyl]-[1,2,4]triazolo[1,5-a]pyridin-2-amine HCl]: the figures for the IC50 with Aβ42 (setting [2]) and with Aβtotal (Homo sapiens) were 123 nM and above 10000 nM, respectively.

With `COc1cc(Nc2nc3c(-c4cc(C(F)(F)F)ccc4F)cccn3n2)ccc1-n1cnc(C)c1` [Compound 63, 8-[2-fluoro-5-(trifluoromethyl)phenyl]-N-[3-methoxy-4-(4-methyl-1H-imidazol-1-yl)phenyl]-[1,2,4]triazolo[1,5-a]pyridin-2-amine], the IC50 in the assay on Aβ42 (setting [2]) turned out to be 19 nM; with Aβtotal (Homo sapiens) it was 8130 nM.

Take `COc1cc(NC(=O)c2nc3c(-c4ccccc4Cl)cccn3n2)ccc1-n1cnc(C)c1` [Compound 72, 8-(2-chlorophenyl)-N-[3-methoxy-4-(4-methyl-1H-imidazol-1-yl)phenyl]-[1,2,4]triazolo[1,5-a]pyridine-2-carboxamide]: the IC50 with Aβ42 (setting [2]) came to 23 nM; in the assay on Aβtotal (Homo sapiens), 4570 nM.

In the case of `COc1cc(Nc2nc3c(-c4ccc(F)cc4)c(C)ccn3n2)ccc1-c1ccnc(C)c1` [Compound 74, 8-(4-fluorophenyl)-N-[3-methoxy-4-(2-methyl-4-pyridinyl)phenyl]-7-methyl-[1,2,4]triazolo[1,5-a]pyridin-2-amine], the IC50 in the assay with Aβ42 (setting [2]) is 15 nM; in the assay with Aβtotal (Homo sapiens), 7410 nM.

Consider `Cc1cc(-c2ccc(Nc3nc4n(n3)CCOC4c3ccccc3C(F)(F)F)cc2)ccn1` (centres unmarked) [Compound 85, 5,6-dihydro-N-[4-(2-methyl-4-pyridinyl)phenyl]-8-[2-(trifluoromethyl)phenyl]-8H-[1,2,4]triazolo[5,1-c][1,4]oxazin-2-amine], for which the IC50 in the assay on Aβ42 (setting [2]) was 44 nM; with Aβtotal (Homo sapiens), above 10000 nM.

Turning to `Cc1cc(-c2ccc(Nc3nc4n(n3)CCOC4c3ccccc3C(F)(F)F)cc2F)ccn1` (centres unmarked) [Compound 86, N-[3-fluoro-4-(2-methyl-4-pyridinyl)phenyl]-5,6-dihydro-8-[2-(trifluoromethyl)phenyl]-8H-[1,2,4]triazolo[5,1-c][1,4]oxazin-2-amine], the IC50 with Aβ42 (setting [2]) is 48 nM; in the assay on Aβtotal (Homo sapiens) it was above 10000 nM.

With `Cc1cc(-c2ccc(Nc3nc4n(n3)CCOC4c3ccccc3Cl)cc2F)ccn1` (centres unmarked) [Compound 88, 8-(2-chlorophenyl)-N-[3-fluoro-4-(2-methyl-4-pyridinyl)phenyl]-5,6-dihydro-8H-[1,2,4]triazolo[5,1-c][1,4]oxazin-2-amine], the IC50 in the assay on Aβ42 (setting [2]) amounted to 36 nM; with Aβtotal (Homo sapiens), 9330 nM.

Turning to `COc1cc(Nc2nc3n(n2)CCCC3c2ccc(C(F)(F)F)cc2)ccc1-c1ccnc(C)c1` (centres unmarked) [Compound 89, 5,6,7,8-tetrahydro-N-[3-methoxy-4-(2-methyl-4-pyridinyl)phenyl]-8-[4-(trifluoromethyl)phenyl]-[1,2,4]triazolo[1,5-a]pyridin-2-amine], the IC50 with Aβ42 (setting [2]) stood at 32 nM; in the assay on Aβtotal (Homo sapiens) it was 9120 nM.

With `Cc1cc(-c2ccc(Nc3nc4n(n3)CCC[C@@H]4c3ccc(F)cc3C)cc2)ccn1` [Compound 93, (8R)-8-(4-fluoro-2-methylphenyl)-5,6,7,8-tetrahydro-N-[4-(2-methyl-4-pyridinyl)phenyl]-[1,2,4]triazolo[1,5-a]pyridin-2-amine], the IC50 was 43 nM in the assay with Aβ42 (setting [2]) and above 10000 nM in the assay on Aβtotal (Homo sapiens).

On to `Cc1cc(-c2ccc(Nc3nc4n(n3)CCC[C@H]4c3ccc(F)cc3C)cc2)ccn1` [Compound 94, (8S)-8-(4-fluoro-2-methylphenyl)-5,6,7,8-tetrahydro-N-[4-(2-methyl-4-pyridinyl)phenyl]-[1,2,4]triazolo[1,5-a]pyridin-2-amine], for which the IC50 is 56 nM with Aβ42 (setting [2]) and above 10000 nM in the assay with Aβtotal (Homo sapiens).

Consider `COc1ccc(C2CCCn3nc(Nc4ccc(-c5ccnc(C)c5)c(OC)c4)nc32)cc1F` (centres unmarked) [Compound 104, 8-(3-fluoro-4-methoxyphenyl)-5,6,7,8-tetrahydro-N-[3-methoxy-4-(2-methyl-4-pyridinyl)phenyl]-[1,2,4]triazolo[1,5-a]pyridin-2-amine.1.3HCl.2.3H2O], for which the results for the IC50 in the assay on Aβ42 (setting [1]) and in the assay on Aβtotal were 56 nM and above 10000 nM, respectively.

On to `COc1cc(Nc2nc3n(n2)CCCC3c2cccc(N(C)C)c2)ccc1-c1ccnc(C)c1` (centres unmarked) [Compound 111, 8-[3-(dimethylamino)phenyl]-5,6,7,8-tetrahydro-N-[3-methoxy-4-(2-methyl-4-pyridinyl)phenyl]-[1,2,4]triazolo[1,5-a]pyridin-2-amine], for which the values for the IC50 in the assay with Aβ42 (setting [2]) and in the assay with Aβtotal (Homo sapiens) were 56 nM and above 10000 nM, respectively.

`COc1cc(F)cc(C2CCCn3nc(Nc4ccc(-c5ccnc(C)c5)c(OC)c4)nc32)c1` (centres unmarked) [Compound 115, 8-(3-fluoro-5-methoxyphenyl)-5,6,7,8-tetrahydro-N-[3-methoxy-4-(2-methyl-4-pyridinyl)phenyl]-[1,2,4]triazolo[1,5-a]pyridin-2-amine]: the IC50 was 41 nM in the assay with Aβ42 (setting [2]) and above 10000 nM in the assay on Aβtotal (Homo sapiens).

Take `Cc1cc(-c2ccc(Nc3nc4n(n3)CCCC4c3cc(C(F)(F)F)ccc3C)cc2)ccn1` (centres unmarked) [Compound 144, 5,6,7,8-tetrahydro-N-[4-(2-methyl-4-pyridinyl)phenyl]-8-[2-methyl-5-(trifluoromethyl)phenyl]-[1,2,4]triazolo[1,5-a]pyridin-2-amine]: the results for the IC50 in the assay on Aβ42 (setting [2]) and in the assay on Aβtotal (Homo sapiens) were 28 nM and above 10000 nM, respectively.

In the case of `COc1ccc(F)c(C2CCCn3nc(Nc4ccc(-c5ccnc(C)c5)c(OC)c4)nc32)c1` (centres unmarked) [Compound 172, 8-(2-fluoro-5-methoxyphenyl)-5,6,7,8-tetrahydro-N-[3-methoxy-4-(2-methyl-4-pyridinyl)phenyl]-[1,2,4]triazolo[1,5-a]pyridin-2-amine.1.7HCl], the values for the IC50 with Aβ42 (setting [1]) and in the assay on Aβtotal were 38 nM and above 10000 nM, respectively.

As for `COc1cc(Nc2nc3c(N4CCCC(C(F)(F)F)C4)cccn3n2)ccc1-c1ccnc(C)c1` (centres unmarked) [Compound 181, N-[3-methoxy-4-(2-methyl-4-pyridinyl)phenyl]-8-[3-(trifluoromethyl)-1-piperidinyl]-[1,2,4]triazolo[1,5-a]pyridin-2-amine.1.5HCl.1.7H2O], the IC50 with Aβ42 (setting [2]) was 16 nM; with Aβtotal (Homo sapiens), 3980 nM.

For `COc1nc(Nc2nc3c(-c4ccc(F)cc4C)nccn3n2)ccc1-n1cnc(C)c1` [Compound 186, 8-(4-fluoro-2-methylphenyl)-N-[6-methoxy-5-(4-methyl-1H-imidazol-1-yl)-2-pyridinyl]-[1,2,4]triazolo[1,5-a]pyrazin-2-amine.HCl], the figures for the IC50 in the assay with Aβ42 (setting [1]) and in the assay on Aβtotal were 1100 nM and above 10000 nM, respectively.

For the origin of these results see patent US9145399B2, “Substituted bicyclic triazole derivatives as gamma secretase modulators” (Janssen Pharmaceuticals, Inc., priority 2010, dated 2015).
